Values joined by “and” are separate entries in the source; they are usually repeats but may differ in a detail not shown here. Identical values can stand only once. Like-named read-outs stand apart in the source and are kept apart here.
Key:
[1] = tested on: whole animal tumor models; details: a number of whole animal tumor models; cited from earlier work
HL60 = assay: In vitro antiproliferative MTT assay in HL60, 24 h endpoint; assay type: cell-based, human; details: triplicate determination; for IC50: read-out: IC50 (μM) ± S.D. in HL60
Protocol: In vitro proliferation assay. Approximately 3 000-5 000 (15 000 cells for HL-60) exponentially growing cells were seeded in each well of a 96-well plate with 50 μl of medium and were allowed to adhere overnight. Cells were then treated with each compound at concentrations ranging from 0.01-10 μM giving the final volume of 100 μl in each well. At the end of incubation period, 15 μl of MTT solution (5.0 mg/ml in PBS) was added and incubated for an additional 4 h. Medium and excessive MTT were aspirated and formazan formed was solubilized with 100 μl of DMSO. Absorbance, as a measurement of viable cell number was read at 570 nm with ThermoLabsystems OpsysMR microplate spectrometer. At least three independent experiments were performed and results are presented as an average.

HCT116 = assay: In vitro anti-proliferative MTT assay, 48 h, HCT116; assay type: cell-based, human; details: HCT116, colon, 48 h post-treatment, read-out: IC50 (μM) ± S.D., HCT116
Excerpt: (§1) In vitro proliferation assay.

MCF-7 = assay: In vitro anti-proliferative MTT assay, 48 h, MCF-7; assay type: cell-based, human; details: MCF-7, breast, 48 h post-treatment, read-out: IC50 (μM) ± S.D., MCF-7
Excerpt: as §1

HSC2 = assay: In vitro anti-proliferative MTT assay, 48 h, HSC2; assay type: cell-based, human; details: HSC2, oral, 48 h post-treatment, read-out: IC50 (μM) ± S.D., HSC2
Excerpt: as §1

OKF6 = assay: In vitro anti-proliferative MTT assay, 48 h, OKF6 immortalized normal oral keratinocytes; assay type: cell-based; details: immortalized normal human epithelial cells, read-out: IC50 (μM) ± S.D., OKF6
Excerpt: as §1

HK1 = assay: In vitro anti-proliferative MTT assay, 48 h, HK1; assay type: cell-based, human; details: HK1, nasopharyngeal, 48 h post-treatment, read-out: IC50 (μM) ± S.D., HK1
Excerpt: as §1

NP69 = assay: In vitro anti-proliferative MTT assay, 48 h, NP69 immortalized normal nasopharyngeal epithelial cells; assay type: cell-based; details: immortalized normal human epithelial cells, read-out: IC50 (μM) ± S.D., NP69
Excerpt: as §1

[2] = Fluorescence quantum yield; assay type: physicochemical; details: for fluorescence quantum yield: in ethanol, unpublished data
Protocol: Steady-state fluorescence spectroscopic studies were performed on a Cary Eclipse fluorometer. The slit width was 5 nm for both excitation and emission. The relative quantum yields of the samples were obtained by comparing the area under the corrected emission spectrum of the test sample with that of a standard. The quantum efficiencies of fluorescence were obtained from multiple measurements (N=3) with the following equation:
Φx=Φst(Ix/Ist)(Ast/Ax)(ηx^2/ηst^2)
Where Φst is the reported quantum yield of the standard, I is the area under the emission spectra, A is the absorption at the excitation wavelength and η is the refractive index of the solvent used, measured on a pocket refractometer from ATAGO. X subscript denotes test sample, and st denotes standard.

HSC2 cells [3] = details: 100 nM
Protocol: Cellular localization. HSC2 cells grown on round glass coverslips in 12-well plate were co-incubated with 100 nM of compound 11 together with organelle-specific fluorescence probes. The endoplasmic reticulum was labeled with 100 nM of ER-Tracker Blue-White DPX, the lysosomes were stained with 500 nM of LysoTracker Blue DND-22, and the mitochrondria was tracked with 100 nM of Rh123 respectively for 15-30 min of incubation at room temperature. After incubation, cells were gently rinsed in PBS to remove free dyes, and the stained cells were observed using Olympus DSU spinning disk confocal microscope configured with a PlanApo x63 oil objective and iXon EM+(Andor Technology) digital camera. Fluorescent images of X-Y sections at 0.2 μm were collected sequentially using Olympus Cell^R software. Organelle-specific fluorescence probes were respectively excited at 365 nm to illuminate ER-tracker and LysoTracker, at 494 nm for Rh123 and at 575 nm for compound 11.

HSC2 cells [4] = details: 0.5 μM
Protocol: AnnexinV-FITC apoptosis analysis. HSC2 cells grown in 60-mm dishes at 50% confluency were treated with 0.5 μM of compound 11. At various treatment intervals, floating cells in the medium were pooled together with the adherent cells after trypsinization and were washed twice with cold PBS. The cells were resuspended with 1× binding buffer at 1×10^6 cells/ml. A 100 μl of cell suspension was transferred to a 5 ml tube followed by […] of AnnexinV-FITC and […] of propidium iodide (200 μg/ml in PBS). The cells were gently mixed and incubated for 15 min at RT in the dark before analysed on a FACSCalibur flow cytometer with 488 nm argon laser. The fluorescence data of 10 000 cells were collected with the FL1 detector with 530/30 band pass filter to collect Annexin-FITC fluorescence, and the FL3 detector with a 630 nm long pass filter to collect propidium iodide fluorescence.

HSC2 cells [5] = details: IC50 concentration (0.25 μM), 4 h to 48 h
Protocol: Cell cycle analysis. HSC2 cells were treated and collected as above. Cells were then fixed in 70% ice-cold ethanol (v/v in PBS) overnight at 4° C. Following fixation, the cells were washed twice in cold PBS. The pellet was then resuspended in PBS solution containing 20 μg/ml RNase A and 1 μM SYTOX Green for 30 min. The cells were analysed on a FACSCalibur flow cytometer with 488 nm argon laser. The DNA-SYTOX Green fluorescence of 10 000 cells were collected with the FL1 detector with 530/30 band pass filter.

[6] = tested on: transformed mouse mammary epithelial cells; details: cells with increased mitochondrial transmembrane potential; cited from earlier work
[7] = tested on: A6-derived subcutaneous tumors; details: nude mice, intraperitoneal injection; cited from earlier work
cancer cells = details: cited from earlier work
carcinoma = details: cited from earlier work
carcinoma cell types = details: in vitro; cited from earlier work
[8] = tested on: non-tumorigenic epithelial cell types; details: in vitro, similar concentrations; cited from earlier work
[9] = Homo sapiens, HL-60, HL60, 24 h post-treatment

Molecule: 3-ethyl-3′-methyl-thiatelluracarbocyanine iodide
- activity in whole animal tumor models [1]: anti-carcinoma activity

Molecule: Cc1ccccc1-c1c2ccc(=[N+]3CCCC3)cc-2oc2cc(N3CCCC3)ccc12 [Compound 1]
- IC50 (HL60; HL60, 24 h post-treatment): 0.72 ± 0.09 µM

Molecule: Cc1ccccc1-c1c2ccc(=[N+]3CCCCC3)cc-2oc2cc(N3CCCCC3)ccc12 [Compound 2]
- IC50 (HL60; HL60, 24 h post-treatment): 0.76 ± 0.03 µM

Molecule: Cc1ccccc1-c1c2ccc(=[N+]3CCOCC3)cc-2oc2cc(N3CCCCC3)ccc12.[Cl-] [Compound 3]
- IC50 (μM) ± S.D. in HL60 (HL60; HL60, 24 h post-treatment): lowest IC50 value among compounds 1-6
- IC50 (HL60; HL60, 24 h post-treatment): 0.35 ± 0.01 µM

Molecule: Cc1ccccc1-c1c2ccc(=[N+]3CCOCC3)cc-2oc2cc(N3CCOCC3)ccc12.[Cl-] [Compound 4]
- IC50 (μM) ± S.D. in HL60 (HL60; HL60, 24 h post-treatment): moderate to poor activity
- IC50 (HL60; HL60, 24 h post-treatment): 8.27 µM

Molecule: Cc1ccccc1-c1c2ccc(=[N+]3CCN(C(=O)OC(C)(C)C)CC3)cc-2oc2cc(N3CCN(C(=O)OC(C)(C)C)CC3)ccc12 [Compound 5]
- IC50 (HL60; HL60, 24 h post-treatment): 0.62 ± 0.07 µM

Molecule: Cc1ccccc1-c1c2ccc(=[N+]3CCNCC3)cc-2oc2cc(N3CCNCC3)ccc12.[Cl-] [Compound 6]
- IC50 (μM) ± S.D. in HL60 (HL60; HL60, 24 h post-treatment): moderate to poor activity
- IC50 (HL60; HL60, 24 h post-treatment): 36.7 µM and 53.3 µM

Molecule: Cc1c2ccc(=[N+]3CCCCC3)cc-2oc2cc(N3CCCCC3)ccc12.[Cl-] [Compound 7]
- IC50 (μM) ± S.D. in HL60 (HL60; HL60, 24 h post-treatment): moderate to poor activity
- IC50 (HL60; HL60, 24 h post-treatment): 3.86 ± 1.46 µM

Molecule: c1ccc(Cc2c3ccc(=[N+]4CCCCC4)cc-3oc3cc(N4CCCCC4)ccc23)cc1 [Compound 8]
- IC50 (HL60; HL60, 24 h post-treatment): 0.82 ± 0.04 µM

Molecule: [Cl-].c1csc(-c2c3ccc(=[N+]4CCCCC4)cc-3oc3cc(N4CCCCC4)ccc23)c1 [Compound 10]
- IC50 (HL60; HL60, 24 h post-treatment): 0.1 µM
- IC50 (HCT116): 0.15 ± 0.06 µM
- IC50 (MCF-7): 0.27 ± 0.16 µM
- IC50 (HSC2): 0.12 ± 0.09 µM
- IC50 (OKF6): 0.25 ± 0.1 µM
- IC50 (HK1): 0.09 ± 0.01 µM
- IC50 (NP69): 0.33 ± 0.2 µM
- fluorescence quantum yield [2]: 0.10 ± 0.01

Molecule: Ic1ccc(-c2c3ccc(=[N+]4CCCCC4)cc-3oc3cc(N4CCCCC4)ccc23)cc1.[Cl-] [Compound 11]
- IC50 (HL60; HL60, 24 h post-treatment): 0.09 µM
- IC50 (HCT116): 0.39 ± 0.11 µM
- IC50 (MCF-7): 0.39 ± 0.22 µM
- IC50 (HSC2): 0.25 ± 0.12 µM
- IC50 (OKF6): 0.41 ± 0.07 µM
- IC50 (HK1): 0.42 ± 0.06 µM
- IC50 (NP69): 0.51 ± 0.16 µM
- fluorescence quantum yield [2]: 0.28 ± 0.01
- presence of compound in the nucleus (HSC2 cells [3]): remained free of compound 11
- staining of the cytoplasmic or nuclear membrane (HSC2 cells [3]): not detected
- co-localisation with ER and lysosomes (HSC2 cells [3]; ER-Tracker and LysoTracker): only partial co-localisation
- cells staining positive for annexin V (HSC2 cells [4]; 0 h or 4 h time-points): less than 10%
- cells staining positive for annexin V (HSC2 cells [4]; 8 h of compound incubation): 16%
- proportion of cells undergoing apoptosis (HSC2 cells [4]; within 24 h): 58%
- cell cycle profile (HSC2 cells [5]): remained unchanged

Molecule: COc1ccc(-c2c3ccc(=[N+]4CCCCC4)cc-3oc3cc(N4CCCCC4)ccc23)cc1 [Compound 12]
- IC50 (HL60; HL60, 24 h post-treatment): 0.66 ± 0.17 µM

Molecule: COc1ccccc1-c1c2ccc(=[N+]3CCCCC3)cc-2oc2cc(N3CCCCC3)ccc12 [Compound 13]
- IC50 (HL60; HL60, 24 h post-treatment): 0.95 ± 0.01 µM

Molecule: COc1cccc(OC)c1-c1c2ccc(=[N+]3CCCCC3)cc-2oc2cc(N3CCCCC3)ccc12 [Compound 14]
- IC50 (HL60; HL60, 24 h post-treatment): 0.25 ± 0.22 µM

Molecule: Oc1cccc(O)c1-c1c2ccc(=[N+]3CCCCC3)cc-2oc2cc(N3CCCCC3)ccc12 [Compound 15]
- IC50 (μM) ± S.D. in HL60 (HL60; HL60, 24 h post-treatment): moderate to poor activity
- IC50 (HL60; [9]): 2.91 ± 1.86 µM

Molecule: O=C(O)COc1cccc(OCC(=O)O)c1-c1c2ccc(=[N+]3CCCCC3)cc-2oc2cc(N3CCCCC3)ccc12 [Compound 16]
- IC50 (μM) ± S.D. in HL60 (HL60; HL60, 24 h post-treatment): moderate to poor activity
- IC50 (HL60; [9]): > 100 µM
- quantum yield ([2]; in phosphate buffer): 0.13

Molecule: C[n+]1ccc(/C=C/c2c[nH]c3ccccc23)cc1.[I-] [Compound F16]
- proliferation of transformed mouse mammary epithelial cells [6]: selectively inhibited proliferation
- growth of A6-derived subcutaneous tumors [7]: retard the growth

Molecule: CCn1c(=O)/c(=C2\Sc3ccccc3N2C)s/c1=C\c1cccc[n+]1CC.[Cl-] [MKT-077]
- growth of cancer cells in vitro and in vivo (cancer cells): significantly inhibit growth
- accumulation in tumor cell mitochondria (carcinoma; clinical study): preferentially accumulated in tumor cell mitochondria
- clinical efficacy (carcinoma; phase II, approved dosage and drug regimen): lack of efficacy

Molecule: COC(=O)c1ccccc1-c1c2ccc(=N)cc-2oc2cc(N)ccc12.Cl [Rh123, rhodamine 123, reference compound]
- IC50 (HCT116): 7.92 ± 0.95 µM
- IC50 (MCF-7): 5.61 ± 0.61 µM
- IC50 (HSC2): 4.48 ± 2.23 µM
- IC50 (OKF6): 9.84 ± 3.46 µM
- IC50 (HK1): 5.86 ± 0.15 µM
- IC50 (NP69): 6.28 ± 0.21 µM
- carcinoma cell types in which cell death was markedly induced (carcinoma cell types): 9/9
- non-tumorigenic epithelial cell types that remained unaffected [8]: 6/6

Molecule: Cc1cc(N)c2ccccc2[n+]1CCCCCCCCCC[n+]1c(C)cc(N)c2ccccc21 [dequalinium chloride]
- activity in whole animal tumor models [1]: anti-carcinoma activity

Source: patent US20110212955A1, “ROSAMINE DERIVATIVES AS AGENTS FOR THE TREATMENT OF CANCER” (CANCER RESEARCH INITIATIVES FOUNDATION, priority 2008, published 2011)
